Measurements: ChEMBL document CHEMBL1158734, “Chemical conversion of nocathiacin I to nocathiacin II and a lactone analogue of glycothiohexide alpha” (2005)
In brackets after ≈: the same amount, converted by molar mass.

What was measured:
Format in all cases: functional
Staphylococcus aureus [1] = assay: Protective activity against Staphylococcus aureus A15090 infected in sc dosed mouse; conditions: read-out: PD50
Staphylococcus aureus [2] = assay: Antibacterial activity against Staphylococcus aureus A15090
Enterococcus faecalis = assay: Antibacterial activity against Enterococcus faecalis A20688
Streptococcus pneumoniae = assay: Antibacterial activity against Streptococcus pneumoniae A28272

`CO/C(C)=C1/NC(=O)[C@H]([C@@H](C)O)NC(=O)c2csc(n2)-c2cc(O)c(-c3nc(C(N)=O)cs3)nc2-c2csc(n2)[C@@H]2COC(=O)c3[nH]c4cccc5c4c3CO[C@H]([C@H](O[C@H]3C[C@](C)(O)[C@H](N(C)C)[C@H](C)O3)C(=O)OC5)[C@H](NC(=O)c3csc1n3)c1nc(cs1)C(=O)N2` [THIAZOMYCIN C] showed an ED50 (Staphylococcus aureus [1]) of 4.35 mg/kg, an MIC (Staphylococcus aureus [2]) of 60 ng/mL (≈ 44.4 nM) and an MIC (Enterococcus faecalis) of 125 ng/mL (≈ 92.4 nM). For the same molecule, the MIC (Streptococcus pneumoniae) was 30 ng/mL (≈ 22.2 nM).
Molecule `CO/C(C)=C1/NC(=O)[C@H]([C@@H](C)O)NC(=O)c2csc(n2)-c2cc(O)c(-c3nc(C(N)=O)cs3)nc2-c2csc(n2)[C@@H]2COC(=O)c3c4c5c(cccc5n3O)COC(=O)[C@@H](O[C@H]3C[C@](C)(O)[C@H](N(C)C)[C@H](C)O3)[C@@H](OC4)[C@H](NC(=O)c3csc1n3)c1nc(cs1)C(=O)N2` [NOCATHIACIN IV] has an ED50 (Staphylococcus aureus [1]) of 1.07 mg/kg, an MIC (Staphylococcus aureus [2]) of 3 ng/mL (≈ 2.19 nM) and an MIC (Enterococcus faecalis) of 7 ng/mL (≈ 5.12 nM). It also gave an MIC (Streptococcus pneumoniae) of 1 ng/mL (≈ 0.731 nM).
`C=C(NC(=O)c1csc(-c2nc3c(cc2O)-c2nc(cs2)C(=O)N[C@@H]([C@@H](C)O)C(=O)N/C(=C(\C)OC)c2nc(cs2)C(=O)N[C@@H]2c4nc(cs4)C(=O)N[C@@H](COC(=O)c4c5c6c(cccc6n4O)COC(=O)[C@@H](O[C@H]4C[C@](C)(O)[C@H](N(C)C)[C@H](C)O4)[C@H]2OC5)c2nc-3cs2)n1)C(N)=O` [MJ347-81F4 A] was tested, and the ED50 (Staphylococcus aureus [1]) was 0.31 mg/kg, the MIC (Staphylococcus aureus [2]) was 7 ng/mL (≈ 4.87 nM) and the MIC (Enterococcus faecalis) was 30 ng/mL (≈ 20.9 nM). It also gave an MIC (Streptococcus pneumoniae) of 2 ng/mL (≈ 1.39 nM).
For `C=C(NC(=O)c1csc(-c2nc3c(cc2O)-c2nc(cs2)C(=O)N[C@@H]([C@@H](C)O)C(=O)N/C(=C(\C)OC)c2nc(cs2)C(=O)N[C@@H]2c4nc(cs4)C(=O)N[C@@H](COC(=O)c4[nH]c5cccc6c5c4CO[C@@H]2[C@H](O[C@H]2C[C@](C)(O)[C@H](N(C)C)[C@H](C)O2)C(=O)OC6)c2nc-3cs2)n1)C(N)=O` [NOCATHIACIN II], the ED50 (Staphylococcus aureus [1]) was under 0.62 mg/kg, the MIC (Staphylococcus aureus [2]) was 7 ng/mL (≈ 4.92 nM) and the MIC (Enterococcus faecalis) was 150 ng/mL (≈ 106 nM). The MIC (Streptococcus pneumoniae) was 0.5 ng/mL (≈ 0.352 nM).
